Paper PMC7153038, “Pharmacologic inhibition of RGD‐binding integrins ameliorates fibrosis and improves function following kidney injury” (Physiological Reports, 2020)
Read-outs that look alike come from different tables or passages of the source.

How the values were obtained:
[1] = biological target: T1, integrin α8β1 (Homo sapiens, UniProt P05556+P53708); experiment: integrin α8β1-mediated attachment of transfected HEK-293 cells to mouse nephronectin; assay type: cell-based; details: mean and SD, at least 3 independent assays; transfected HEK-293, nephronectin; read-out: IC50, inhibition of α8β1-mediated cell attachment
T1 construct: expressed in transfected cells
Procedure: (§1) The RGD peptidomimetic CWHM‐12 was synthesized as described in detail previously (Henderson et al., 2013). A close structural analog of this compound with improved oral bioavailability, CWHM‐680, was also synthesized at Saint Louis University. Potency for the compounds in blocking cell attachment mediated by integrins αvβ3, αvβ5, and αvβ6 was measured as previously described (Henderson et al., 2013). Potency for blocking cell attachment mediated by integrins αvβ1, αvβ8, and α8β1 was measured using modifications of this method which are briefly summarized as follows: To assess CWHM‐12 and CWHM‐680 effects on cellular αvβ1 function, we varied its concentration in an assay measuring binding of HEK‐293 cells, which naturally express this integrin (Nagarajan et al., 2007), to the surface of 96‐well plates coated with purified recombinant human TGFβ‐1 latency‐associated peptide (R&D Systems). To assess the effect on cellular αvβ8 function, we performed the assay with the same LAP ligand but with HEK‐293 cells which had been stably transfected to overexpress this integrin. To assess the effect on cellular α8β1 function, we performed the assay using HEK‐293 cells, which had been stably transfected to overexpress this integrin and used purified recombinant mouse nephronectin as the immobilized ligand (R&D Systems). […]

[2] = tested on: pro-fibrotic gene expression in kidney; experiment: aristolochic acid kidney injury model, kidney qRT-PCR; assay type: in vivo, mouse; details: AA-injured, 100 mg/kg/day s.c. minipump, day 27; vehicle 32-fold
Procedure: (§2) Alzet osmotic minipumps (Cupertino, CA) were implanted subcutaneously in 8‐ to 10‐week‐old wild‐type male ICR outbred mice (Envigo) one day prior to induction of kidney injury to deliver vehicle (DMSO/H2O 1:1) or CWHM‐12 at a dose of 100 mg/kg per day. A single 5 mg/kg dose of aristolochic acid I sodium salt (Sigma‐Aldrich, A9451) in PBS was administered intraperitoneally to induce kidney injury, and mice were monitored daily for 27 days thereafter. Control (uninjured) mice were injected with an equal volume of PBS. Blood was obtained by maxillary vein puncture on days 0, 5 (peak injury), and 28 (study endpoint). For testing CWHM‐680, oral gavage (100 mg/kg per day) was started one day prior to injection of aristolochic acid I sodium salt and continued once daily until the study endpoint. Blood was obtained at days 0, 7, and 23 (study endpoint). […] Serum creatinine was measured by liquid chromatography–mass spectrometry (LC–MS/MS) at the University of Alabama O’Brien Center Bioanalytical Core. CWHM‐12 and CWHM‐680 concentrations were measured in plasma samples by liquid chromatography–tandem mass spectrometry (LC/MS/MS) using compound spiked into control plasma as a standard. All experiments were performed under protocols approved by the Institutional Animal Care and Use Committee at St. Louis University. […]

[3] = observation of deleterious effects in treated animals; assay type: in vivo, mouse; details: 100 mg/kg/day s.c. minipump, 28 days
Procedure: Alzet osmotic minipumps (Cupertino, CA) were implanted subcutaneously in 8‐ to 10‐week‐old wild‐type male ICR outbred mice (Envigo) one day prior to induction of kidney injury to deliver vehicle (DMSO/H2O 1:1) or CWHM‐12 at a dose of 100 mg/kg per day. A single 5 mg/kg dose of aristolochic acid I sodium salt (Sigma‐Aldrich, A9451) in PBS was administered intraperitoneally to induce kidney injury, and mice were monitored daily for 27 days thereafter. Control (uninjured) mice were injected with an equal volume of PBS. Blood was obtained by maxillary vein puncture on days 0, 5 (peak injury), and 28 (study endpoint). For testing CWHM‐680, oral gavage (100 mg/kg per day) was started one day prior to injection of aristolochic acid I sodium salt and continued once daily until the study endpoint. Blood was obtained at days 0, 7, and 23 (study endpoint). […] Serum creatinine was measured by liquid chromatography–mass spectrometry (LC–MS/MS) at the University of Alabama O’Brien Center Bioanalytical Core. CWHM‐12 and CWHM‐680 concentrations were measured in plasma samples by liquid chromatography–tandem mass spectrometry (LC/MS/MS) using compound spiked into control plasma as a standard. All experiments were performed under protocols approved by the Institutional Animal Care and Use Committee at St. Louis University.

[4] = tested on: integrin αIIbβ3; design: method as in Henderson et al., 2013; details: no significant activity; ref Henderson et al., 2013; read-out: activity against integrin αIIbβ3; cited from earlier work
[5] = biological target: integrin αvβ5 (Homo sapiens, UniProt P06756+P18084); experiment: integrin αvβ5-mediated cell attachment to ligand; assay type: cell-based; details: mean and SD, at least 3 independent assays; read-out: IC50, inhibition of αvβ5-mediated cell attachment
Chain of integrin αvβ5 (P06756 31-889 limits assumed): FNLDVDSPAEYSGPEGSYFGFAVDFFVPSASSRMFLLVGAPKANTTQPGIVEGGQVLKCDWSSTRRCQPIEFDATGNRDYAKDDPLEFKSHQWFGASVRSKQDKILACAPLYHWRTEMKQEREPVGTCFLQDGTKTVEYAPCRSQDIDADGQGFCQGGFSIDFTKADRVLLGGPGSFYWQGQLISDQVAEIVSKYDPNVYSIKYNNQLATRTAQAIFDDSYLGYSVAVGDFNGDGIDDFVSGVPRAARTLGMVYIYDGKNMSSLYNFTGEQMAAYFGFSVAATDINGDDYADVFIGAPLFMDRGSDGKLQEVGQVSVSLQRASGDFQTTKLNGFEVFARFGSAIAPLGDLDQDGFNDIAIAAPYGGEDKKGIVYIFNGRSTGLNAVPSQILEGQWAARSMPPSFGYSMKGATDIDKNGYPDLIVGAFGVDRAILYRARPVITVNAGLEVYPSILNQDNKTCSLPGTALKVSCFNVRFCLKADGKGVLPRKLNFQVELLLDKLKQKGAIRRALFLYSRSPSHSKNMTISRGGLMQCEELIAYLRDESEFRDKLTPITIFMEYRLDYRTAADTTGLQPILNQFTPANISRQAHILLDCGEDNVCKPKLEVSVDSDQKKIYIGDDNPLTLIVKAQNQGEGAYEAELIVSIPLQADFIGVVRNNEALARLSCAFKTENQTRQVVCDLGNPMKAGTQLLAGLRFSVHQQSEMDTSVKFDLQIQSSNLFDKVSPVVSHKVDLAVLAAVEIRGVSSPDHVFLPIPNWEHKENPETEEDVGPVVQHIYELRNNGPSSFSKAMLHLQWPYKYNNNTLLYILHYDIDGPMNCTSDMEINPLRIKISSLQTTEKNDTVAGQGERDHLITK
Chain of integrin αvβ5 (P06756 891-1048 partner limits assumed): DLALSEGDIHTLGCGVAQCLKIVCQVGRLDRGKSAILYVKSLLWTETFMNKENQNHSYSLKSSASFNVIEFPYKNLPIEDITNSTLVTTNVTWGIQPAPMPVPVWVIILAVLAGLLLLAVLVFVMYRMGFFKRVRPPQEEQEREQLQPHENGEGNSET
Chain of integrin αvβ5 (P18084 24-799): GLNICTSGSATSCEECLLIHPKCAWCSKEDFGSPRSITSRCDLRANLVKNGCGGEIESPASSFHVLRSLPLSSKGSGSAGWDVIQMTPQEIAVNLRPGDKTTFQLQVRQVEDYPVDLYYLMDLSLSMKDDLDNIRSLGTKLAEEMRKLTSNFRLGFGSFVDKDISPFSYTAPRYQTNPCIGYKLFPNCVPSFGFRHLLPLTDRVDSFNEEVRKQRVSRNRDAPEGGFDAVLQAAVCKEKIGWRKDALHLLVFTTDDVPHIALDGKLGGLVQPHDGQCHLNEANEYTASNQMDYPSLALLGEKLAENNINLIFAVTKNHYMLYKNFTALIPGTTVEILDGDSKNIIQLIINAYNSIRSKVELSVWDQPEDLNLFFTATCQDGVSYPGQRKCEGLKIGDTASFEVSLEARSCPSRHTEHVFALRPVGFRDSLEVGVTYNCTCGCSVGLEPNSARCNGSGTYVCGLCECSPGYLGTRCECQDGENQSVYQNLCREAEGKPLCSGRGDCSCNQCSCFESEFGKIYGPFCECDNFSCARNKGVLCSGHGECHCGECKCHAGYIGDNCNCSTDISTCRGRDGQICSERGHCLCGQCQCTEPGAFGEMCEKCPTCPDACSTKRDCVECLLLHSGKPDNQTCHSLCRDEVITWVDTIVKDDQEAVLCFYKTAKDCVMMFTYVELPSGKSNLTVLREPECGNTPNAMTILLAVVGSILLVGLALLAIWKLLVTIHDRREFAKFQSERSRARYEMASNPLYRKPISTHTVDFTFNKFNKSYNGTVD
Procedure: as §1

[6] = biological target: integrin αvβ6 (Homo sapiens, UniProt P06756+P18564); experiment: integrin αvβ6-mediated cell attachment to ligand; assay type: cell-based; details: mean and SD, at least 3 independent assays, read-out: IC50, inhibition of αvβ6-mediated cell attachment
Chain of integrin αvβ6 (P06756 31-889 limits assumed): as the sequence (P06756 31-889 limits assumed) above
Chain of integrin αvβ6 (P06756 891-1048 partner limits assumed): as the sequence (P06756 891-1048 partner limits assumed) above
Chain of integrin αvβ6 (P18564 22-788): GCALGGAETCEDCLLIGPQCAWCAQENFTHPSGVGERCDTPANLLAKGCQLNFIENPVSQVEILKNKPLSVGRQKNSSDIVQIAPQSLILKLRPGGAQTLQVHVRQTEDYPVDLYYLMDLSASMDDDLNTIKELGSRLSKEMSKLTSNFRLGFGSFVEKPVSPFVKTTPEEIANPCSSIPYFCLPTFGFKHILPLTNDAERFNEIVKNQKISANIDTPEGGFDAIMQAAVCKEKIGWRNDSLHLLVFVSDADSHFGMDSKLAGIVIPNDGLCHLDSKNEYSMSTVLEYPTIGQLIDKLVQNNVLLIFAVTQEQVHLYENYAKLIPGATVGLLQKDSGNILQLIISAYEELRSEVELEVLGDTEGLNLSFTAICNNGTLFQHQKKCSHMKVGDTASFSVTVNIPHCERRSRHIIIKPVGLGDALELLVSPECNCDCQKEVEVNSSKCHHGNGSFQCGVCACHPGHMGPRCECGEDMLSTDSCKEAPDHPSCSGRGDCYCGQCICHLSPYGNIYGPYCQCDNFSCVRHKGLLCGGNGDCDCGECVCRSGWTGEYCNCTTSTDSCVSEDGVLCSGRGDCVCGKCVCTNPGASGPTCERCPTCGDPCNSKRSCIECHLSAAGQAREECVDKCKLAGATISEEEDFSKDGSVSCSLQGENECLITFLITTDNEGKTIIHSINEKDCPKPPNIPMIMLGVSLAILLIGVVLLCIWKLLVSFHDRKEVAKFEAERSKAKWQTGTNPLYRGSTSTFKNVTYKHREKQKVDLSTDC
Procedure: as §1

[7] = biological target: integrin αvβ3 (Homo sapiens, UniProt P05106+P06756); experiment: integrin αvβ3-mediated cell attachment to ligand; assay type: cell-based; details: mean and SD, at least 3 independent assays, read-out: IC50, inhibition of αvβ3-mediated cell attachment
Chain of integrin αvβ3 (P06756 31-889 limits assumed): as the sequence (P06756 31-889 limits assumed) above
Chain of integrin αvβ3 (P06756 891-1048 partner limits assumed): as the sequence (P06756 891-1048 partner limits assumed) above
Chain of integrin αvβ3 (P05106 27-788): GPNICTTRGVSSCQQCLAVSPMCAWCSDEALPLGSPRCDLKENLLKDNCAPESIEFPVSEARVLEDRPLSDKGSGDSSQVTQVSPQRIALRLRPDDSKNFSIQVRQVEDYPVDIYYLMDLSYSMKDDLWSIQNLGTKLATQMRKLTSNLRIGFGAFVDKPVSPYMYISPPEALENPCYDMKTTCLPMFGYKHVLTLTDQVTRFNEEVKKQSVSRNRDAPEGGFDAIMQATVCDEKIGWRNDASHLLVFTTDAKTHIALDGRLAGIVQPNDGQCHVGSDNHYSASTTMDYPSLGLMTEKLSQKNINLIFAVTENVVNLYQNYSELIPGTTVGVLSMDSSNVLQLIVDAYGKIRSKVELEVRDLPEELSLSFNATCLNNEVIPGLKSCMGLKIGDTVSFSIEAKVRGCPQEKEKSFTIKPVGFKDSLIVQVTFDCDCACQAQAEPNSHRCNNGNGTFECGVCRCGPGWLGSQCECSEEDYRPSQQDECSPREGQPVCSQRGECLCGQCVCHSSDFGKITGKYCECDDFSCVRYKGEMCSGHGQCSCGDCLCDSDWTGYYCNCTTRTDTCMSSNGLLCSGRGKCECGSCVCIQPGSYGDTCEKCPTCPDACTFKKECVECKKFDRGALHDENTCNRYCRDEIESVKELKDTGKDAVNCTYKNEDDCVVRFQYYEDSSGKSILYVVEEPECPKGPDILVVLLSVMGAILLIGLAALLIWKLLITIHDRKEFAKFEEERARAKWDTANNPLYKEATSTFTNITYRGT
Procedure: as §1

[8] = tested on: Collagen 1 protein in kidney; experiment: aristolochic acid kidney injury model, Collagen 1 Western blot; assay type: in vivo, mouse; details: AA-injured, 100 mg/kg/day s.c. minipump
Procedure: as §2

Compound: CC(C)(C)c1cc(Br)cc([C@H](CC(=O)O)NC(=O)CNC(=O)c2cc(O)cc(NC3=NCC(O)CN3)c2)c1 (some centres unmarked) [CWHM‐12]
- IC50 [1]: 35 ± 16 nM
- Col1a1 mRNA expression increase by qRT-PCR compared with uninjured animals [2]: 9 fold
- obvious deleterious effects in treated animals [3]: did not observe obvious deleterious effects
- IC50 [4]: > 5000 nM
- IC50 [5]: 47 ± 26 nM
- IC50 ([6]; listed as CWHM−12): 0.31 ± 0.14 nM
- IC50 [6]: < 1 nM
- IC50 ([7]; listed as CWHM−12): 0.47 ± 0.45 nM
- IC50 [7]: < 1 nM
- Collagen 1 protein reduction by Western blot compared with vehicle ([8]; day 27): threefold
- Collagen 1 densitometry normalized to HDAC2 ([8]; vehicle 2.14 ± 0.39): 0.719 ± 0.13 arbitrary units
